Data on 32 molecules can be found in patent US11261174B2, “Pyrazole O-linked carbamoyl cyclohexyl acids as LPA antagonists” (BRISTOL-MYERS SQUIBB COMPANY, priority 2017, dated 2022).

Molecules are shown by their SMILES.

T1 sequence (Q92633 whole entry): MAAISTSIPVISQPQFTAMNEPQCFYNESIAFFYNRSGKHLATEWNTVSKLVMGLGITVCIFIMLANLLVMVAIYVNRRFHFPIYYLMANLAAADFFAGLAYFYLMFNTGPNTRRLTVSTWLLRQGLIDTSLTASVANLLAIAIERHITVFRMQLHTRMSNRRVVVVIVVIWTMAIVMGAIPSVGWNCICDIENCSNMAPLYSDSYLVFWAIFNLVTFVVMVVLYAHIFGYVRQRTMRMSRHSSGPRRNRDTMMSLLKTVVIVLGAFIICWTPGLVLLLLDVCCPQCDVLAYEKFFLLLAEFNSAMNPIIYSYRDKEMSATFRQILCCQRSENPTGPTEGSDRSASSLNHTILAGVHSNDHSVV

The test system of one assay is mouse epithelial renal cell line, MCT.
Assay: not given
As to conditions: LPA treatment of MCT cells, co-treatment; cited from earlier work.
On to `Cc1noc(-c2ccc(CSCCC(=O)O)cc2)c1NC(=O)OC(C)c1ccccc1Cl` (stereo not drawn) [Ki16425], for which the “induction of CTGF expression” value was “almost completely suppressed”.

For another assay, the system named is human foetal lung fibroblasts.
Assay: not given
The following applies: induced by BAL obtained from IPF patients; cited from earlier work.
`Cc1noc(-c2ccc(CSCCC(=O)O)cc2)c1NC(=O)OC(C)c1ccccc1Cl` (stereo not drawn) [Ki16425]: the “chemotaxis of human foetal lung fibroblasts” value is listed as “blocked”.

The next assay concerns the target T1, LPA1 (Homo sapiens, UniProt Q92633). As to the kind of experiment: LPA1 functional antagonist assay (LPA-induced calcium flux). The class given is cell-based. Also noted: expressed in transfected cells; host or cells: Chinese hamster ovary (CHO) cells. As to conditions: CHO cells overexpressing human LPA1; calcium flux induced by 10 nM LPA; read-out: hLPA1 IC50. As for the experimental part: The effectiveness of compounds of the present invention as LPA1 inhibitors can be determined in an LPA1 functional antagonist assay as follows:
Chinese hamster ovary cells overexpressing human LPA1 were plated overnight (15,000 cells/well) in poly-D-lysine coated 384-well microplates (Greiner bio-one, Cat #781946) in DMEM/F12 medium (Gibco, Cat #11039). Following overnight culture, cells were loaded with calcium indicator dye (AAT Bioquest Inc, Cat #34601) for 30 minutes at 37° C. The cells were then equilibrated to room temperature for 30 minutes before the assay. Test compounds solubilized in DMSO were transferred to 384 well non-binding surface plates (Corning, Cat #3575) using the Labcyte Echo acoustic dispense and diluted with assay buffer [1×HBSS with calcium/magnesium (Gibco Cat #14025-092), 20 mM HEPES (Gibco Cat #15630-080) and 0.1% fatty acid free BSA (Sigma Cat # A9205)] to a final concentration of 0.5% DMSO. Diluted compounds were added to the cells by FDSS6000 (Hamamatsu) at final concentrations ranging from 0.08 nM to 5 μM. and were then incubated for 20 min at room temperature at which time LPA (Avanti Polar Lipids Cat #857130C) was added at final concentrations of 10 nM to stimulate the cells. […] IC50 values were determined by fitting data to a 4-parameter logistic equation (GraphPad Prism, San Diego Calif.).
A general note: Calcium assays in cells follow changes in intracellular calcium, usually with a dye or a luminescent sensor.
For the molecule `CCCN(C)C(=O)OCc1c(-c2ccc(O[C@H]3CCC[C@H](C(=O)O)C3)c(C)n2)cnn1C` [Example 12], the IC50 (usually the midpoint of a concentration-inhibition curve) was found to be 54 nM.
The same measure, in the same setting: with `CC(C1CCC1)N(C)C(=O)OCc1c(-c2ccc(O[C@H]3CCC[C@H](C(=O)O)C3)cc2)cnn1C` (stereo partly drawn) [Example 55] the figure was 22 nM.
Consider `CN(CC1CC1)C(=O)OCc1c(-c2ccc(O[C@H]3CCC[C@H](C(=O)O)C3)cc2)cnn1C` [Example 51], for which the IC50 amounted to 399 nM.
For the molecule `CCc1nc(-c2cnn(C)c2COC(=O)N(C)Cc2ccccc2)ncc1O[C@H]1CCC[C@H](C(=O)O)C1` [Example 82], the concentration for half-maximal inhibition (IC50) was 79 nM.
Turning to `CCc1nc(-c2cnn(C)c2COC(=O)N(C)C2CCCC2)ncc1O[C@H]1CCC[C@H](C(=O)O)C1` [Example 83], the IC50 is 60 nM.
For `CC[C@H](C)CN(C)C(=O)OCc1c(-c2ccc(O[C@H]3CCC[C@H](C(=O)O)C3)c(C)n2)cnn1C` [Example 11], the 50% inhibitory concentration (IC50) stood at 73 nM.
`CC(C)CCN(C)C(=O)OCc1c(-c2ccc(O[C@H]3CCC[C@H](C(=O)O)C3)cn2)cnn1C` [Example 33]: the half-inhibitory concentration (IC50) was 23 nM.
On the same count and under the same terms, with `Cc1nc(-c2cnn(C)c2COC(=O)N(C)Cc2cccc(F)c2)ccc1O[C@H]1CCC[C@H](C(=O)O)C1` [Example 16] the figure was 8 nM; with `Cc1nc(-c2cnn(C)c2COC(=O)N(C)C2CCCC2)ccc1O[C@H]1CCC[C@H](C(=O)O)C1` [Example 5], 30 nM; with `CC(C)CCN(C)C(=O)OCc1c(-c2ccc(O[C@@H]3CCC[C@@H](C(=O)O)C3)cn2)cnn1C` (racemic) [Example 34], 33 nM.
As to `CCCCN(C)C(=O)OCc1c(-c2ccc(O[C@H]3CCC[C@H](C(=O)O)C3)c(C)n2)cnn1C` [Example 20], the half-inhibitory concentration (IC50) came to 16 nM.
On to `CCCCN(C)C(=O)OCc1c(-c2cnc(O[C@H]3CCC[C@H](C(=O)O)C3)c(C)n2)cnn1C` (racemic) [Example 7], for which the 50% inhibitory concentration (IC50) is 40 nM.
On to `Cc1nc(-c2cnn(C)c2COC(=O)N(C)CC2CC2)ccc1O[C@H]1CCC[C@H](C(=O)O)C1` [Example 25], for which the IC50 was determined as 20 nM.
As for `C[C@H](C1CC1)N(C)C(=O)OCc1c(-c2ccc(O[C@H]3CCC[C@H](C(=O)O)C3)cc2)cnn1C` [Example 58], the IC50 was 38 nM.
For the molecule `Cc1nc(-c2cnn(C)c2COC(=O)N(C)[C@H](C)C2CC2)cnc1O[C@H]1CCC[C@H](C(=O)O)C1` [Example 6], the IC50 is 94 nM.
For the molecule `CN(C(=O)OCc1c(-c2ccc(O[C@H]3CCC[C@H](C(=O)O)C3)cc2)cnn1C)C1CCC1` [Example 50], the half-inhibitory concentration (IC50) came to 70 nM.
Regarding `CN(CC1CCC1)C(=O)OCc1c(-c2ccc(O[C@H]3CCC[C@H](C(=O)O)C3)cn2)cnn1C` [Example 3], the IC50 was 48 nM.
Still for that read-out and setting: with `Cc1nc(-c2cnn(C)c2COC(=O)N(C)C2(C3CC3)CC2)ccc1O[C@H]1CCC[C@H](C(=O)O)C1` [Example 17] the figure was 43 nM; with `Cc1nc(-c2cnn(C)c2COC(=O)N(C)CC2CC2)ncc1O[C@H]1CCC[C@H](C(=O)O)C1` [Example 69], 293 nM.
As for `Cc1nc(-c2cnn(C)c2COC(=O)N(C)C[C@@H]2C[C@H]2C)ncc1O[C@H]1CCC[C@H](C(=O)O)C1` [Example 91], the IC50 was 32 nM.
Take `CCCC(C)N(C)C(=O)OCc1c(-c2ccc(O[C@H]3CCC[C@H](C(=O)O)C3)cc2)cnn1C` (stereo partly drawn) [Example 54]: the 50% inhibitory concentration (IC50) was 87 nM.
Consider `CN(Cc1ccccc1)C(=O)OCc1c(-c2ccc(O[C@@H]3CCC[C@@H](C(=O)O)C3)cc2)cnn1C` [Example 36], for which the IC50 is 376 nM.
Consider `CCC(C)N(C)C(=O)OCc1c(-c2ccc(O[C@H]3CCC[C@H](C(=O)O)C3)cc2)cnn1C` (stereo partly drawn) [Example 53], for which the IC50 was found to be 86 nM.
On to `Cc1nc(-c2cnn(C)c2COC(=O)N(C)CC2CCC2)ncc1O[C@H]1CCC[C@H](C(=O)O)C1` [Example 80], for which the IC50 came out at 71 nM.
As for `Cc1nc(-c2cnn(C)c2COC(=O)N(C)[C@H](C)C2CC2)ccc1O[C@H]1CCC[C@H](C(=O)O)C1` [Example 65], the IC50 was found to be 48 nM.
For the molecule `Cc1nc(-c2cnn(C)c2COC(=O)N(C)CCCCF)ncc1O[C@H]1CCC[C@H](C(=O)O)C1` [Example 74], the IC50 is 77 nM.
Turning to `CN(CC1CC1)C(=O)OCc1c(-c2ccc(O[C@H]3CCC[C@H](C(=O)O)C3)cn2)cnn1C` [Example 4], the IC50 amounted to 165 nM.
Same read-out and setting: for `Cc1nc(-c2cnn(C)c2COC(=O)N(C)Cc2ccccc2)ccc1O[C@@H]1CCC[C@@H](C(=O)O)C1` (racemic) [Example 27] the value was 24 nM; for `CCCCN(C)C(=O)OCc1c(-c2ccc(O[C@H]3CCC[C@H](C(=O)O)C3)c(C)c2)cnn1C` [Example 60], 11 nM.
With `Cc1nc(-c2cnn(C)c2COC(=O)N(C)CC23CC(F)(C2)C3)ncc1O[C@H]1CCC[C@H](C(=O)O)C1` [Example 76], the IC50 was determined as 346 nM.

The next assay deals with pancreatic cancer cell lines.
Assay: not given
As to conditions: LPA-induced and ascites-induced; highly peritoneal metastatic pancreatic cancer cell line; cited from earlier work.
For `Cc1noc(-c2ccc(CSCCC(=O)O)cc2)c1NC(=O)OC(C)c1ccccc1Cl` (stereo not drawn) [Ki16425], the invasion activity result was “blocked”.

Staying with this assay, now noted: in response to LPA and peritoneal fluid (ascites) from pancreatic cancer patients; cited from earlier work.
Consider `Cc1noc(-c2ccc(CSCCC(=O)O)cc2)c1NC(=O)OC(C)c1ccccc1Cl` (stereo not drawn) [Ki16425], for which the in vitro migration result is “effectively blocked”.

In another assay the target is T1, LPA1.
Assay: not given
As to conditions: IPF patients, 26-week clinical trial; cited from earlier work.
`Cc1noc(-c2ccc(-c3ccc(C4(C(=O)O)CC4)cc3)cc2)c1NC(=O)O[C@H](C)c1ccccc1` [BMS-986020]: the “rate of FVC (forced vital capacity) decline” value was “significantly reduce”.

Another assay relates to UUO mice.
Assay: not given
As to conditions: cited from earlier work.
Consider `Cc1noc(-c2ccc(CSCCC(=O)O)cc2)c1NC(=O)OC(C)c1ccccc1Cl` (stereo not drawn) [Ki16425], for which the “development of renal fibrosis” value is “closely resembled the profile of LPA1 (−/−) mice”.
